Data as given in patent publication US8569302B2, “Inhibitors of flaviviridae viruses” (Gilead Sciences, Inc., priority 2009, dated 2013).

Test system: human hepatoma Huh-7 cell line harboring a HCV replicon
Assay: HCV replicon assay (inhibition of viral replication, luciferase readout)
Assay type: cell-based
Details: Hepatitis C virus, 72 h, Huh-7 HCV replicon cells, 3 days incubation
Summary of the method: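 Read-outs: luciferase luminescence for replication inhibition, corrected by ITMN-191 (100% inhibition) wells, and calcein AM fluorescence for cytotoxicity. Cells were treated for 3 days at 37 °C with ten 3-fold compound dilutions in 0.44% final DMSO. Percent inhibition relative to DMSO was fitted with a Hill equation to give EC50 and CC50.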

| Structure (SMILES) | inhibition at 2 µM |
| --- | --- |
| CC(C)(C)C#Cc1cc(N(C(=O)[C@H]2CC[C@H](C)CC2)[C@H]2CC[C@H](Oc3nccc(=O)[nH]3)CC2)c(C(=O)O)s1 [Compound 326, 5-(3,3-Dimethyl-but-1-ynyl)-3-{(4-methyl-cyclohexanecarbonyl)-[4-(6-oxo-1,6-dihydro-pyrimidin-2-yloxy)-cyclohexyl]-amino}-thiophene-2-carboxylic acid] | 99.9% |
| CC(C)(C)C#Cc1cc(N(C(=O)[C@H]2CC[C@H](C)CC2)[C@H]2CC[C@H](O[C@H]3CCOC3)CC2)c(C(=O)O)s1 [Compound 331, 5-(3,3-Dimethyl-but-1-ynyl)-3-{(trans-4-methyl-cyclohexanecarbonyl)-[4-(tetrahydro-furan-3(S)-yloxy)-trans-cyclohexyl]-amino}-thiophene-2-carboxylic acid] | 100% |
| CC(C)(C)C#Cc1cc(N(C(=O)[C@H]2CC[C@H](C)CC2)[C@H]2CC[C@@H](O[C@H]3CCOC3)CC2)c(C(=O)O)s1 [Compound 332, 5-(3,3-Dimethyl-but-1-ynyl)-3-{(trans-4-methyl-cyclohexanecarbonyl)-[4-(tetrahydro-furan-3(S)-yloxy)-cis-cyclohexyl]-amino}-thiophene-2-carboxylic acid] | 99.9% |
| CC1=CC[C@@H](C(=O)N(c2cc(C#CC(C)(C)C)sc2C(=O)O)[C@H]2CC[C@H](O[C@H]3CCOC3)CC2)CC1 [Compound 333] | 100% |
| CC1=CC[C@@H](C(=O)N(c2cc(C#CC(C)(C)C)sc2C(=O)O)[C@H]2CC[C@H](OC3CCOC3)CC2)CC1 (some centres unmarked) [Compound 334] | 99.9% |
| CC1=CC[C@H](C(=O)N(c2cc(C#CC(C)(C)C)sc2C(=O)O)[C@H]2CC[C@H](OC3CCOC3)CC2)CC1 (some centres unmarked) [Compound 335] | 99.9% |
| CC1=CC[C@H](C(=O)N(c2cc(C#CC(C)(C)C)sc2C(=O)O)[C@H]2CC[C@H](O[C@H]3CCOC3)CC2)CC1 [Compound 336] | 100% |
| CC1=CC[C@@H](C(=O)N(c2cc(C#CC(C)(C)C)sc2C(=O)O)[C@H]2CC[C@H](Oc3cc(CN(C)C)ccn3)CC2)CC1 [Compound 337, 3-[[4-(4-Dimethylaminomethyl-pyridin-2-yloxy)-trans-cyclohexyl]-(4-methyl-cyclohex-3-enecarbonyl)-amino]-5-(3,3-dimethyl-but-1-ynyl)-thiophene-2-carboxylic acid] | 100% |
| CN(C)Cc1ccnc(O[C@H]2CC[C@H](N(c3cc(C#CC4(C(F)(F)F)CCC4)sc3C(=O)O)C(=O)[C@H]3CC[C@H](C)CC3)CC2)c1 [Compound 338, 3-((1r,4R)—N-((1r,4R)-4-(4-((dimethylamino)methyl)pyridin-2-yloxy)cyclohexyl)-4-methylcyclohexanecarboxamido)-5-((1-(trifluoromethyl)cyclobutyl)ethynyl)thiophene-2-carboxylic acid] | 99.9% |
| C[C@H]1CC[C@H](C(=O)N(c2cc(C#CC3(C(F)(F)F)CCC3)sc2C(=O)O)[C@H]2CC[C@H](Oc3ccc(O)nn3)CC2)CC1 [Compound 339, 3-((1r,4R)—N-((1r,4R)-4-(6-hydroxypyridazin-3-yloxy)cyclohexyl)-4-methylcyclohexanecarboxamido)-5-((1-(trifluoromethyl)cyclobutyl)ethynyl)thiophene-2-carboxylic acid] | 99.9% |
| CN(C)Cc1ccnc(O[C@H]2CC[C@H](N(c3cc(C#CC4(C(F)(F)F)CC4)sc3C(=O)O)C(=O)[C@H]3CC[C@H](C)CC3)CC2)c1 [Compound 340, 3-((1r,4R)—N-((1r,4R)-4-(4-((dimethylamino)methyl)pyridin-2-yloxy)cyclohexyl)-4-methylcyclohexanecarboxamido)-5-((1-(trifluoromethyl)cyclopropyl)ethynyl)thiophene-2-carboxylic acid] | 100% |
| CN(C)Cc1ccnc(O[C@H]2CC[C@H](N(c3cc(C#CC(C)(C)C(F)(F)F)sc3C(=O)O)C(=O)[C@H]3CC[C@H](C)CC3)CC2)c1 [Compound 341, 3-((1r,4R)—N-((1r,4R)-4-(4-((dimethylamino)methyl)pyridin-2-yloxy)cyclohexyl)-4-methylcyclohexanecarboxamido)-5-(4,4,4-trifluoro-3,3-dimethylbut-1-ynyl)thiophene-2-carboxylic acid] | 100% |
| C[C@H]1CC[C@H](C(=O)N(c2cc(C#CC3(C(F)(F)F)CC3)sc2C(=O)O)[C@H]2CC[C@H](Oc3ccc(O)nn3)CC2)CC1 [Compound 342, 3-((1r,4R)—N-((1r,4R)-4-(6-hydroxypyridazin-3-yloxy)cyclohexyl)-4-methylcyclohexanecarboxamido)-5-((1-(trifluoromethyl)cyclopropyl)ethynyl)thiophene-2-carboxylic acid] | 100% |
| CC(C)(C#Cc1cc(N(C(=O)[C@H]2CC[C@H](C)CC2)[C@H]2CC[C@H](Oc3ccc(O)nn3)CC2)c(C(=O)O)s1)C(F)(F)F [Compound 343, 3-((1r,4R)—N-((1r,4R)-4-(6-hydroxypyridazin-3-yloxy)cyclohexyl)-4-methylcyclohexanecarboxamido)-5-(4,4,4-trifluoro-3,3-dimethylbut-1-ynyl)thiophene-2-carboxylic acid] | 100% |
| C[C@H]1CC[C@H](C(=O)N(c2cc(C#CC3(C(F)(F)F)CC3)sc2C(=O)O)[C@H]2CC[C@H](Oc3ccncn3)CC2)CC1 [Compound 344, 3-((1r,4R)-4-methyl-N-((1r,4R)-4-(pyrimidin-4-yloxy)cyclohexyl)cyclohexanecarboxamido)-5-(2-(1-(trifluoromethyl)cyclopropyl)ethynyl)thiophene-2-carboxylic acid] | 99.8% |
| C[C@H]1CC[C@H](C(=O)N(c2cc(C#CC3(C(F)(F)F)CC3)sc2C(=O)O)[C@H]2CC[C@H](OC3CCOC3)CC2)CC1 (stereo partly drawn) [Compound 345, 3-((1r,4R)-4-methyl-N-((1r,4R)-4-(tetrahydrofuran-3-yloxy)cyclohexyl)cyclohexanecarboxamido)-5-(2-(1-(trifluoromethyl)cyclopropyl)ethynyl)thiophene-2-carboxylic acid] | 100% |
| C[C@H]1CC[C@H](C(=O)N(c2cc(C#CC3(C(F)(F)F)CC3)sc2C(=O)O)[C@H]2CC[C@@H](OC3CCOC3)CC2)CC1 (stereo partly drawn) [Compound 346, 3-((1r,4R)-4-methyl-N-((1s,4S)-4-(tetrahydrofuran-3-yloxy)cyclohexyl)cyclohexanecarboxamido)-5-(2-(1-(trifluoromethyl)cyclopropyl)ethynyl)thiophene-2-carboxylic acid] | 99.5% |
